Molecules are shown by their SMILES.

The target of this test is T1, C5aR (Homo sapiens, UniProt P21730).
T1 construct: U937 cells are a monocytic cell line which express C5aR; host or cells: U937 cells (cAMP-treated overnight)
T1 sequence (P21730 1-350): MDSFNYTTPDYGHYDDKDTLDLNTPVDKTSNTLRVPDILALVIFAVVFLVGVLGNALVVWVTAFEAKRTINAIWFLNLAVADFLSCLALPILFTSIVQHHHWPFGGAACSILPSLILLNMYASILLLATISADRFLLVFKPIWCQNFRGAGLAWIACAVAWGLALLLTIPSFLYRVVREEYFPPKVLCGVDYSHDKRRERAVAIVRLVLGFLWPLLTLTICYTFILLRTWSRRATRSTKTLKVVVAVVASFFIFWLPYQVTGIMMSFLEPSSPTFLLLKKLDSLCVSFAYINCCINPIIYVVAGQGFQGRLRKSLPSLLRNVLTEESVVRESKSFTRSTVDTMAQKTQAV
Nature of the test: Chemotaxis assay using U937 cells (C5a-induced migration). It counts as cell-based. The following applies: chemotaxis (migration) of U937 cells towards C5a; read-out: Mig IC50. As for the experimental part: U937 cells are a monocytic cell line which express C5aR, and are available from ATCC (VA). These cells were cultured as a suspension in RPMI-1640 medium supplemented with 2 mM L-glutamine, 1.5 g/L sodium bicarbonate, 4.5 g/L glucose, 10 mM HEPES, 1 mM sodium pyruvate, and 10% FBS. Cells were grown under 5% CO2/95% air, 100% humidity at 37° C. and subcultured twice weekly at 1:6 (cells were cultured at a density range of 1×10^5 to 2×10^6 cells/mL) and harvested at 1×10^6 cells/mL. Prior to assay, cells are treated overnight with 0.5 mM of cyclic AMP (Sigma, OH) and washed once prior to use. cAMP treated U937 cells can be used in C5aR ligand binding and functional assays.
Optionally, compounds may be further assayed for their ability to inhibit chemotaxis in cells. Chemotaxis assays are performed using 5 μm pore polycarbonate, polyvinylpyrrolidone-coated filters in 96-well chemotaxis chambers (Neuroprobe; Gaithersburg, Md.) using chemotaxis buffer (Hank's balanced salt solution (HBSS) and 1% FBS). C5aR ligands (i.e., C5a, R&D Systems; Minneapolis, Minn.) are use to evaluate compound mediated inhibition of C5aR mediated migration. Other chemokines (i.e., SDF-1α; R&D Systems; Minneapolis, Minn.) are used as specificity controls. The lower chamber is loaded with 29 μl of chemokine (i.e., 0.03 nM C5a) and varying amounts of compound; the top chamber contains 100,000 U937 or neutrophil cells in 20 μl. The chambers are incubated 1.5 hours at 37° C., and the number of cells in the lower chamber quantified either by direct cell counts in five high powered fields per well or by the CyQuant assay (Molecular Probes), a fluorescent dye method that measures nucleic acid content and microscopic observation.
The compounds in Table 1, below, were prepared using the methods described above. Characterization data is provided for each compound listed. Activity is provided as follows for the chemotaxis assay using U937 cells as described herein (Example 7): +, 500 nM<IC50; ++, 50 nM<IC50<500 nM; +++, 5 nM<IC50<50 nM; and ++++, IC50<5 nM.
For orientation: IC50 means the concentration that inhibits the measured activity by half. Take `Cc1cccc(C)c1-n1nc2c(c1-c1ccc(N)cc1)CN(c1ccccc1C(C)C)C2` [Compound 1.046]: the IC50 was 0.05 to 0.5 µM.
The result for `Cc1ccc(C(C)(C)C)cc1N1Cc2nn(-c3c(C)cccc3C)c(-c3ccc(C(N)=O)cc3)c2C1` [Compound 1.047] reads below 0.005 µM.
Consider `Cc1ccc(C(C)(C)C)cc1N1Cc2nn(-c3c(C)cccc3C)c(-c3ccc(C(C)(C)O)cc3)c2C1` [Compound 1.048], for which the IC50 was in the range of 0.05 to 0.5 µM.
The result for `Cc1ccc(C(C)(C)C)cc1N1Cc2nn(-c3c(C)cccc3C)c(-c3ccc(NC(N)=O)cc3)c2C1` [Compound 1.049] reads 0.05 to 0.5 µM; that for `CNc1ccc(-c2c3c(nn2-c2c(C)cccc2C)CN(c2cc(C(C)(C)C)ccc2C)C3)cc1` [Compound 1.050], above 0.5 µM; that for `Cc1ccc(C(C)(C)C)cc1N1Cc2nn(-c3c(C)cccc3C)c(-c3ccc(N)cc3)c2C1` [Compound 1.051], below 0.005 µM.
Consider `COc1cccc(C)c1-n1nc2c(c1-c1ccc(NC(N)=O)cc1)CN(c1cc(C(C)(C)C)ccc1C)C2` [Compound 1.052], for which the concentration for half-maximal inhibition (IC50) is above 0.5 µM.
The result for `CCCOc1cccc(C)c1-n1nc2c(c1-c1ccc(N)cc1)CN(c1cc(C(C)(C)C)ccc1C)C2` [Compound 1.053] reads 0.005 to 0.05 µM; that for `CCOc1cccc(C)c1-n1nc2c(c1-c1ccc(N)cc1)CN(c1cc(C(C)(C)C)ccc1C)C2` [Compound 1.054], 0.005 to 0.05 µM; that for `COc1cccc(C)c1-n1nc2c(c1-c1ccc(N)cc1)CN(c1cc(C(C)(C)C)ccc1C)C2` [Compound 1.055], 0.005 to 0.05 µM.

The record behind these values is patent US11485737B2, “Diaryl substituted 5,5-fused ring compounds as C5aR inhibitors” (CHEMOCENTRYX, INC., priority 2017, dated 2022).
